The target in this test is T1, AmnC (2-aminomuconic 6-semialdehyde dehydrogenase) (Pseudomonas sp., UniProt Q9KWS5, DEL124-138/DEL477-491).
T1 sequence (Q9KWS5 1-476 DEL124-138): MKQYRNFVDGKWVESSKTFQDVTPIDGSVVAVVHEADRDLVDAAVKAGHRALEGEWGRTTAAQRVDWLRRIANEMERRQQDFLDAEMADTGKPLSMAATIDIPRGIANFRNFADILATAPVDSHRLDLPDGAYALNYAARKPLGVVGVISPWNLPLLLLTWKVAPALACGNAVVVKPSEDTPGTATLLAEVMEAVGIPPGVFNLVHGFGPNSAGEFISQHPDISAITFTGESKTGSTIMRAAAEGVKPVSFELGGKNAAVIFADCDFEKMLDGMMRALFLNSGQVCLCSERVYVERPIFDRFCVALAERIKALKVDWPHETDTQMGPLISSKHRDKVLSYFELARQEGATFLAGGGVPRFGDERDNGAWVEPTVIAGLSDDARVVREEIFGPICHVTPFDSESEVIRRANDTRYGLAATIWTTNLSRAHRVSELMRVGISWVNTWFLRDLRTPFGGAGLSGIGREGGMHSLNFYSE
The experiment in a line: microscale thermophoresis. It is filed as binding.

As a reminder, the Kd is the free concentration of one partner at which half of the binding sites on the other are occupied at equilibrium, for simple one-to-one binding. Read a high Kd as a looser complex. With `NC(=O)c1ccc[n+]([C@@H]2O[C@H](COP(=O)(O)OP(=O)(O)OC[C@H]3O[C@@H](n4cnc5c(N)ncnc54)[C@H](O)[C@@H]3O)[C@@H](O)[C@H]2O)c1` [NAD^+], the dissociation constant Kd came out at 3 ± 0.3 mM.
